The test system of assay [1] is human retinal microvascular endothelial cells (HRMECs). As to the kind of experiment: tube formation assay in HRMECs. Type of assay: cell-based. The conditions noted are these: 25 μM ginsenoside, 4 hours, vs DMSO negative control and VEGF-A positive control. The method, then:
(§1) The angiogenesis-promoting activities between human umbilical vascular endothelial cells (HUVECs) and human retinal microvascular endothelial cells (HRMECs) using 10 kinds of ginsenoside compounds (CK, Rh2, Rg3, Rb1, F2, Rd, Re, Rg1, Rh1, or F1). That is, HUVECs or HRMECs were cultured in an incubator (5% CO2 and 37° C.) using 2% FBS, EGM-2 (Lonza, Walkersville, Md., USA) medium. A 96-well plate was coated with Matrigel (BD Biosciences) for 1 hour. Then, HUVECs or HRMECs (10^4 cells/well, respectively), which were mixed with a 0.1% FBS-containing EBM-2 medium respectively treated with 25 μM of ginsenoside compounds (CK, Rh2, Rg3, Rb1, F2, Rd, Re, Rg1, Rh1, or F1), were seeded on the 96-well plate. After 4 hours of incubation, a tube formation assay was performed and the number of tubes formed was compared by microscopic observation and photographing (FIGS. 1a, 1b, 2a, and 2b). In particular, the cells cultured after treating with DMSO instead of ginsenoside were used as a negative control, and the cells cultured after treating with VEGF-A, which is known to promote angiogenesis, were used as a positive control.
(§2) The HUVECs or HRMECs, which were cultured by the method of Example 1, were cultured after treating at various concentrations (12.5, 25, or 50 μM) of ginsenoside F1 or Rh1 selected from Example 1 for 4 hours, and the number of tubes formed was compared by performing a tube formation assay (FIGS. 3 and 4). In particular, the cells cultured after treating with DMSO instead of ginsenoside were used as a negative control and the cells cultured after treating with VEGF-A, which is known to promote angiogenesis, were used as a positive control.

Assay [2] concerns human umbilical vascular endothelial cells (HUVECs). As to the kind of experiment: tube formation assay in HUVECs. To be noted: 25 μM ginsenoside, 4 hours, vs DMSO negative control and VEGF-A positive control. It is filed as cell-based. The method, then:
as §1, §2

The test system of assay [3] is HUVECs. As to the kind of experiment: vascular permeability assay, VEGF-A-treated HUVECs. It is filed as cell-based, human. The conditions noted are these: for vascular leakage induced by VEGF-A: HUVECs pretreated with 25 μM ginsenoside for 1 hour, then VEGF-A; for level of vascular leakage, pretreatment plus VEGF-A compared to ginsenoside alone: HUVECs, 25 μM ginsenoside pretreatment 1 hour then VEGF-A vs ginsenoside alone. On the procedure:
The HUVECs, cultured by a method described in Example 1, were pretreated with 25 μM ginsenoside F1 or Rh1 for 1 hour selected from Example 1, treated with VEGF-A, and then subjected to a vascular permeability assay (FIG. 9). In particular, the cells cultured after treating with DMSO instead of ginsenoside were used as a negative control; the cells cultured after treating with VEGF-A, which is known to promote angiogenesis, were used as a positive control; and the cells pretreated with ginsenoside F1 or Rh1 and not treated with VEGF-A were used as a comparative group.

The test system of assay [4] is ICR mice. As to the kind of experiment: VEGF-A-induced vascular leakage in mouse ears (Evans blue). Type of assay: in vivo. The conditions noted are these: ear intradermal 10 μL, ginsenoside 1.25 μM with VEGF-A 250 μg, 30 minutes. On the procedure: Seven-week-old male ICR mice were injected with 1% Evans blue dye (200 μL) into the tail vein and allowed to react for 10 minutes to dye the blood in blue.
Then, the mice were intradermally injected in an amount of 10 μL through the ears with PBS (negative control), VEGF-A (250 μg, positive control), ginsenoside F1 (1.25 μM), ginsenoside Rh1 (1.25 μM), VEGF-A (250 μg)/ginsenoside F1 (1.25 μM), or VEGF-A (250 μg)/ginsenoside Rh1 (1.25 μM), respectively.
Thirty minutes thereafter, the mice were subjected to euthanasia and their ears were removed. After confirming the amount of blood leakage by the naked eye (FIG. 10A), the ears were put in formamide and fixed at 37° C. for 24 hours. Then, the effects of F1 or Rh1 on the inhibition of blood leakage were quantitatively evaluated by measuring the absorbance at 620 nm (FIG. 10B).

In assay [5] the test system is HUVECs. As to the kind of experiment: MTT cell proliferation assay in HUVECs. Type of assay: cell-based, human. The conditions noted are these: 48 hours, concentrations 0, 3.125, 6.25, 12.5, or 25 μM. On the procedure:
The HUVECs or HRMECs, which were cultured by the method of Example 1, were cultured after treating at various concentrations (0, 3.125, 6.25, 12.5, or 25 μM) of three kinds of ginsenosides (F1, Rh1, or Rg1), which were confirmed to promote tube formation in Example 1, for 48 hours, and the level of cell proliferation was compared by performing the MTT assay with respect to the cultured cells (FIGS. 5 and 6). In particular, the cells cultured after treating with DMSO instead of ginsenoside were used as a negative control, and the cells cultured after treating with VEGF-A, which is known to promote angiogenesis, were used as a positive control.

On to `CC(C)=CCC[C@](C)(O[C@@H]1O[C@H](CO)[C@@H](O)[C@H](O)[C@H]1O)[C@H]1CC[C@]2(C)[C@@H]1[C@H](O)C[C@@H]1[C@@]3(C)CC[C@H](O)C(C)(C)[C@@H]3CC[C@]12C` [ginsenoside CK], for which the “number of tubes formed (tube formation)” value in assay [1] and in assay [2] was “effect of inhibiting tube formation” throughout.

For the molecule `CC(C)=CCCC(C)(OC1OC(CO)C(O)C(O)C1O)C1CCC2(C)C1C(O)CC1C3(C)CCC(O)C(C)(C)C3C(O)CC12C` [ginsenoside F1, 20-O-β-D-glucopyranosyl-20(S)-protopanaxatriol], in assay [1], the “number of tubes formed (tube formation)” value is “effect of promoting tube formation at a higher level compared to that of the positive control”. In assay [3], the “vascular leakage induced by VEGF-A” value is “vascular leakage was inhibited by the pretreatment” and the “level of vascular leakage, pretreatment plus VEGF-A compared to ginsenoside alone” value is “further reduced compared to when the HUVECs were treated with ginsenoside F1 or Rh1 alone”. The “number of tubes formed (tube formation)” value in assay [2] is “effect of promoting tube formation at a higher level compared to that of the positive control”. In addition, in assay [4], the “vascular leakage symptoms induced by VEGF-A (Evans blue, absorbance at 620 nm)” value is “effectively inhibit the vascular leakage symptoms induced by VEGF-A”. The “promotion of cell proliferation” value in assay [5] is on record as “about 20%”.

For the molecule `CC(C)=CCC[C@](C)(O[C@@H]1O[C@H](CO)[C@@H](O)[C@H](O)[C@H]1O)[C@H]1CC[C@]2(C)[C@@H]1[C@H](O)C[C@@H]1[C@@]3(C)CC[C@H](O[C@@H]4O[C@H](CO)[C@@H](O)[C@H](O)[C@H]4O)C(C)(C)[C@@H]3CC[C@]12C` [ginsenoside F2], the “number of tubes formed (tube formation)” value in assay [1] is “effect of promoting tube formation”; in assay [2], “did not show any noticeable difference”.

For the molecule `CC(C)=CCC[C@](C)(O[C@@H]1O[C@H](CO[C@@H]2O[C@H](CO)[C@@H](O)[C@H](O)[C@H]2O)[C@@H](O)[C@H](O)[C@H]1O)[C@H]1CC[C@]2(C)[C@@H]1[C@H](O)C[C@@H]1[C@@]3(C)CC[C@H](O[C@@H]4O[C@H](CO)[C@@H](O)[C@H](O)[C@H]4O[C@@H]4O[C@H](CO)[C@@H](O)[C@H](O)[C@H]4O)C(C)(C)[C@@H]3CC[C@]12C` [ginsenoside Rb1], the “number of tubes formed (tube formation)” value was “effect of promoting tube formation” in assay [1] and “did not show any noticeable difference” in assay [2].

For `CC(C)=CCC[C@](C)(O[C@@H]1O[C@H](CO)[C@@H](O)[C@H](O)[C@H]1O)[C@H]1CC[C@]2(C)[C@@H]1[C@H](O)C[C@@H]1[C@@]3(C)CC[C@H](O[C@@H]4O[C@H](CO)[C@@H](O)[C@H](O)[C@H]4O[C@@H]4O[C@H](CO)[C@@H](O)[C@H](O)[C@H]4O)C(C)(C)[C@@H]3CC[C@]12C` [ginsenoside Rd], the “number of tubes formed (tube formation)” value in assay [1] and in assay [2] was “effect of promoting tube formation” in each case.

Turning to `CC(C)=CCC[C@](C)(O[C@@H]1O[C@H](CO)[C@@H](O)[C@H](O)[C@H]1O)[C@H]1CC[C@]2(C)[C@@H]1[C@H](O)C[C@@H]1[C@@]3(C)CC[C@H](O)C(C)(C)[C@@H]3[C@@H](O[C@@H]3O[C@H](CO)[C@@H](O)[C@H](O)[C@H]3O[C@@H]3O[C@@H](C)[C@H](O)[C@@H](O)[C@H]3O)C[C@]12C` [ginsenoside Re], the “number of tubes formed (tube formation)” value in assay [1] and in assay [2] was “effect of promoting tube formation” throughout.

As for `CC(C)=CCC[C@](C)(O[C@@H]1O[C@H](CO)[C@@H](O)[C@H](O)[C@H]1O)[C@H]1CC[C@]2(C)[C@@H]1[C@H](O)C[C@@H]1[C@@]3(C)CC[C@H](O)C(C)(C)[C@@H]3[C@@H](O[C@@H]3O[C@H](CO)[C@@H](O)[C@H](O)[C@H]3O)C[C@]12C` [ginsenoside Rg1], the “number of tubes formed (tube formation)” value in assay [1] and in assay [2] was “effect of promoting tube formation” in each case. Besides, the “promotion of cell proliferation” value in assay [5] is given as “about 60%”.

In the case of `CC(C)=CCC[C@](C)(O)[C@H]1CC[C@]2(C)[C@@H]1[C@H](O)C[C@@H]1[C@@]3(C)CC[C@H](O[C@@H]4O[C@H](CO)[C@@H](O)[C@H](O)[C@H]4O[C@@H]4O[C@H](CO)[C@@H](O)[C@H](O)[C@H]4O)C(C)(C)[C@@H]3CC[C@]12C` [ginsenoside Rg3], the “number of tubes formed (tube formation)” value in assay [1] and in assay [2] was “effect of inhibiting tube formation” throughout.

Consider `CC(C)=CCCC(C)(O)C1CCC2(C)C1C(O)CC1C3(C)CCC(O)C(C)(C)C3C(OC3OC(CO)C(O)C(O)C3O)CC12C` [ginsenoside Rh1, 6-O-β-D-glucopyranoside-20(S)-protopanaxatriol], for which, in assay [1], the “number of tubes formed (tube formation)” value is reported as “effect of promoting tube formation at a higher level compared to that of the positive control”. In assay [3], the “vascular leakage induced by VEGF-A” value is “vascular leakage was inhibited by the pretreatment” and the “level of vascular leakage, pretreatment plus VEGF-A compared to ginsenoside alone” value was “further reduced compared to when the HUVECs were treated with ginsenoside F1 or Rh1 alone”. The “number of tubes formed (tube formation)” value in assay [2] is on record as “effect of promoting tube formation at a higher level compared to that of the positive control”. For the same molecule, in assay [4], the “vascular leakage symptoms induced by VEGF-A (Evans blue, absorbance at 620 nm)” value is on record as “effectively inhibit the vascular leakage symptoms induced by VEGF-A”. Moreover, in assay [5], the “promotion of cell proliferation” value is reported as “about 100%”.

With ginsenoside Rb2, the “number of tubes formed (tube formation)” value in assay [1] and in assay [2] was “effect of inhibiting tube formation” each time.

The values are drawn from patent US10391110B2, “Composition for preventing or treating vascular leak syndrome” (INTELLIGENT SYNTHETIC BIOLOGY CENTER, priority 2015, dated 2019).
